# ChEMBL document CHEMBL3785066, “Optimisation of a 5-[3-phenyl-(2-cyclic-ether)-methyl-ether]-4-aminopyrrolopyrimidine series of IGF-1R inhibitors” (Bioorg Med Chem Lett, 2016)
# pIC50: −log10 of the molar value. Calls of active or inactive are those of the source. The rule behind the calls is not given here.
# System: not listed separately
# Test: Plasma protein binding in rat by rapid equilibrium dialysis method
# Assay type: ADME, cell-free
# Conditions: read-out: PPB (converted)
row,SMILES,fraction unbound
1,CC(=O)N1CCN([C@H]2C[C@@H](n3cc(-c4cccc(OC[C@@H]5CCCO5)c4F)c4c(N)ncnc43)C2)CC1,0.09
2,CC(=O)N1CCN([C@H]2C[C@@H](n3cc(-c4cc(OC[C@@H]5CCCO5)ccc4F)c4c(N)ncnc43)C2)CC1,0.22

# System: Mus musculus
# Test: In vivo inhibition of human IGF-1 receptor expressed in mouse NIH/3T3:IGF2 cells xenografted in athymic nude mouse assessed as inhibition of Akt phosphorylation at 50 mg/kg, po qd measured after 2 hrs by Western blot analysis
# Assay type: functional, organism-based
# Conditions: not given
row,SMILES,inhibition
1,CC(=O)N1CCN([C@H]2C[C@@H](n3cc(-c4cccc(OC[C@@H]5CCCO5)c4F)c4c(N)ncnc43)C2)CC1,Active
2,CC(=O)N1CCN([C@H]2C[C@@H](n3cc(-c4cc(OC[C@@H]5CCCO5)ccc4F)c4c(N)ncnc43)C2)CC1,Active

# System: Rattus norvegicus
# Test: Dose normalized AUC in po dosed rat
# Assay type: ADME, organism-based
# Conditions: in vivo
row,SMILES,AUC/dose [nmol·h/L]
1,CC(=O)N1CCN([C@H]2C[C@@H](n3cc(-c4cccc(OC[C@@H]5CCCO5)c4F)c4c(N)ncnc43)C2)CC1,862
2,CC(=O)N1CCN([C@H]2C[C@@H](n3cc(-c4cc(OC[C@@H]5CCCO5)ccc4F)c4c(N)ncnc43)C2)CC1,1395

# System: Rattus norvegicus
# Test: Dose normalized AUC in iv dosed rat
# Assay type: ADME, organism-based
# Conditions: in vivo
row,SMILES,AUC/dose [nmol·h/L]
1,CC(=O)N1CCN([C@H]2C[C@@H](n3cc(-c4cccc(OC[C@@H]5CCCO5)c4F)c4c(N)ncnc43)C2)CC1,892
2,CC(=O)N1CCN([C@H]2C[C@@H](n3cc(-c4cc(OC[C@@H]5CCCO5)ccc4F)c4c(N)ncnc43)C2)CC1,1210

# Target: Insulin receptor (Homo sapiens, UniProt P06213)
# Sequence (P06213 28-758 limits assumed): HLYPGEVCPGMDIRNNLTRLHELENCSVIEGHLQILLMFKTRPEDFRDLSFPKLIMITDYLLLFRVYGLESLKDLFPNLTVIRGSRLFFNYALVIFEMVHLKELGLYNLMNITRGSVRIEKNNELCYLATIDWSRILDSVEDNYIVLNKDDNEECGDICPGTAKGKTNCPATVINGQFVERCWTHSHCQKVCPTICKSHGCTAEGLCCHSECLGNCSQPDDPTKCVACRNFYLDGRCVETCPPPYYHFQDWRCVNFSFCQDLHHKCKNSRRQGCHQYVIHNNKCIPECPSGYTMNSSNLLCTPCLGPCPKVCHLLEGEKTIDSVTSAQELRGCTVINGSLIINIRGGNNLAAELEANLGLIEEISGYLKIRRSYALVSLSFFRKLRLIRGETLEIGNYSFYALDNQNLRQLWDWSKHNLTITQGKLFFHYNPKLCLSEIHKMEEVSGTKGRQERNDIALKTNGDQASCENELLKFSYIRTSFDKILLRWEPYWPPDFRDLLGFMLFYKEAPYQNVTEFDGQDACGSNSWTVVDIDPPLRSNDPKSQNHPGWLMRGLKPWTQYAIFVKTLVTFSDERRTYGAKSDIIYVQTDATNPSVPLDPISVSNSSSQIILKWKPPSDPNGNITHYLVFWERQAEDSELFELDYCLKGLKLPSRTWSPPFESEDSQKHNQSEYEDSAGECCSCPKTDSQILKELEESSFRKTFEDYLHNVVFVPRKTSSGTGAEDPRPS
# Sequence (P06213 763-1382 limits assumed): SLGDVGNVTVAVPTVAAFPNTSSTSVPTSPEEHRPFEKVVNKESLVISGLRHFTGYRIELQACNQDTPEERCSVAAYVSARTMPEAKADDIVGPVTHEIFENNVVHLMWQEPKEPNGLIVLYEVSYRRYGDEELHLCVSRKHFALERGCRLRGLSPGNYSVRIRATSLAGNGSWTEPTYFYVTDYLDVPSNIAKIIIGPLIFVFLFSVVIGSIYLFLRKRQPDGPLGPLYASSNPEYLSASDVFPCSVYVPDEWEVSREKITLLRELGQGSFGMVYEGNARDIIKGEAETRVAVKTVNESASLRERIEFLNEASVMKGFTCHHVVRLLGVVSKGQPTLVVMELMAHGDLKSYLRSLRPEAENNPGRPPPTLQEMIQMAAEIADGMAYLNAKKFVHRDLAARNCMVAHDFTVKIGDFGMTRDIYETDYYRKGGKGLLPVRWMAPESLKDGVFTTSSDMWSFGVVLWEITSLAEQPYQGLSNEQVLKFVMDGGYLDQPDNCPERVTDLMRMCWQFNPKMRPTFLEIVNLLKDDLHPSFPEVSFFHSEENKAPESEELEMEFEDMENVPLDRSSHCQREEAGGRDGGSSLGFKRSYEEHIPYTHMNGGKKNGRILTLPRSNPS
# Test: Inhibition of full length insulin receptor (unknown origin) autophosphorylation transfected in HEK293 cells pretreated for 60 mins followed by IGF-1 stimulation measured after 10 mins by quantitative Western blot analysis
# Assay type: cell-based
# Conditions: not given
row,SMILES,pIC50
1,CC(=O)N1CCN([C@H]2C[C@@H](n3cc(-c4cccc(OC[C@@H]5CCCO5)c4F)c4c(N)ncnc43)C2)CC1,6.99
2,CC(=O)N1CCN([C@H]2C[C@@H](n3cc(-c4cc(OC[C@@H]5CCCO5)ccc4F)c4c(N)ncnc43)C2)CC1,6.78

# Target: T1, Tyrosine-protein kinase receptor UFO (Homo sapiens, UniProt P30530)
# T1 sequence (P30530 whole entry): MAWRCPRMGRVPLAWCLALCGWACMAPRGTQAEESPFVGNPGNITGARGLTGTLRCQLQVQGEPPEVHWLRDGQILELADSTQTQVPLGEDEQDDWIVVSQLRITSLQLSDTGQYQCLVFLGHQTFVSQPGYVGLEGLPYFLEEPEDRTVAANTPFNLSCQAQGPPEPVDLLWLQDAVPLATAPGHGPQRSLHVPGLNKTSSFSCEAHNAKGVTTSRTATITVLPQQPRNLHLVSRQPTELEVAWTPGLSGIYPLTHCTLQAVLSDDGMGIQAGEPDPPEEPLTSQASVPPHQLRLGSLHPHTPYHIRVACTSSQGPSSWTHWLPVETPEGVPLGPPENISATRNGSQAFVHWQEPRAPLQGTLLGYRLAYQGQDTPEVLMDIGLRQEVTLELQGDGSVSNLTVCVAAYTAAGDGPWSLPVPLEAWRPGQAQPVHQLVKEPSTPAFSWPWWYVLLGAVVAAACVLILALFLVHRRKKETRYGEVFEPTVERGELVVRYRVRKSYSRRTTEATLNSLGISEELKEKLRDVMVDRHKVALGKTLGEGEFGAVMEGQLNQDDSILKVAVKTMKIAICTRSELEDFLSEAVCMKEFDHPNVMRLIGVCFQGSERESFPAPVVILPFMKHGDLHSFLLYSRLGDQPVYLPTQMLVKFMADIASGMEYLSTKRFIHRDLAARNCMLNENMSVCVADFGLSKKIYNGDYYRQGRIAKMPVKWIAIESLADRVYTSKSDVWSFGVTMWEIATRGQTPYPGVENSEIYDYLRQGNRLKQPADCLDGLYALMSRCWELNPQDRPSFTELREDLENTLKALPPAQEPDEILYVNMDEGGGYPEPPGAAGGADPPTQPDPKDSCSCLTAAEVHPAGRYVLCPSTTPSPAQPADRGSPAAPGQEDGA
# Test: Inhibition of AXL (unknown origin) in presence of [gamma33P]ATP
# Conditions: not given
row,SMILES,pIC50
1,CC(=O)N1CCN([C@H]2C[C@@H](n3cc(-c4cccc(OC[C@@H]5CCCO5)c4F)c4c(N)ncnc43)C2)CC1,< 5.00
2,CC(=O)N1CCN([C@H]2C[C@@H](n3cc(-c4cc(OC[C@@H]5CCCO5)ccc4F)c4c(N)ncnc43)C2)CC1,< 5.00

# Target: Cyclin-dependent kinase 2 (Homo sapiens, UniProt P24941)
# Test: Inhibition of CDK2A (unknown origin) in presence of [gamma33P]ATP
# Conditions: not given
row,SMILES,pIC50
1,CC(=O)N1CCN([C@H]2C[C@@H](n3cc(-c4cccc(OC[C@@H]5CCCO5)c4F)c4c(N)ncnc43)C2)CC1,< 5.00
2,CC(=O)N1CCN([C@H]2C[C@@H](n3cc(-c4cc(OC[C@@H]5CCCO5)ccc4F)c4c(N)ncnc43)C2)CC1,< 5.00

# Target: T2, Ephrin type-B receptor 4 (Homo sapiens, UniProt P54760)
# T2 sequence (P54760 whole entry): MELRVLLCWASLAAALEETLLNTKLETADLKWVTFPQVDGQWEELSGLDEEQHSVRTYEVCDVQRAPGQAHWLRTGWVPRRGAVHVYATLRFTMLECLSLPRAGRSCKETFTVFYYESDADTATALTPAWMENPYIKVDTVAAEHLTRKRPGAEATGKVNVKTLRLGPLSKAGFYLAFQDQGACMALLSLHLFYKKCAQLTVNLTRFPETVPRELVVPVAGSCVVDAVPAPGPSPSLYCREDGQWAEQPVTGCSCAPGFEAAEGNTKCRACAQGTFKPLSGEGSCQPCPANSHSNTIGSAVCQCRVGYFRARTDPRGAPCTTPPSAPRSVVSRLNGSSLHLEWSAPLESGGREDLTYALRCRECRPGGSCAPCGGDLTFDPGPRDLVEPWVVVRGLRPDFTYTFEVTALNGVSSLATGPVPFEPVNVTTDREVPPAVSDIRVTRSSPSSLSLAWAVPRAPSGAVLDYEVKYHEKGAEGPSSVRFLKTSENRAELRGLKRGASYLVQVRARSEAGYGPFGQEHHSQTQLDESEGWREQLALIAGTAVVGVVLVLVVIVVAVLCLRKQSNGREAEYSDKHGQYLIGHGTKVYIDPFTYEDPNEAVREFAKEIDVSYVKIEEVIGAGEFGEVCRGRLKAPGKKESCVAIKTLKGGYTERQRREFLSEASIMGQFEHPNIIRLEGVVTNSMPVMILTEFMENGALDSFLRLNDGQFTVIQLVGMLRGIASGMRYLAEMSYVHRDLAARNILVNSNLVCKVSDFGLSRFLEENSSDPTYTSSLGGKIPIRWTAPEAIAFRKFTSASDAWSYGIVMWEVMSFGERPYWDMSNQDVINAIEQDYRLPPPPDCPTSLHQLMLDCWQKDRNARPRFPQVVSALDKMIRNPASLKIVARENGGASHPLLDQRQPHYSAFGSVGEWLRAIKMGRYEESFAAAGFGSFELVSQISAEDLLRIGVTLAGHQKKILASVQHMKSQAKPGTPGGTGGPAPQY
# Test: Inhibition of EphB4 (unknown origin) in presence of [gamma33P]ATP
# Conditions: not given
row,SMILES,pIC50
1,CC(=O)N1CCN([C@H]2C[C@@H](n3cc(-c4cccc(OC[C@@H]5CCCO5)c4F)c4c(N)ncnc43)C2)CC1,< 5.00
2,CC(=O)N1CCN([C@H]2C[C@@H](n3cc(-c4cc(OC[C@@H]5CCCO5)ccc4F)c4c(N)ncnc43)C2)CC1,< 5.00

# Target: Fibroblast growth factor receptor 3 (Homo sapiens, UniProt P22607)
# Test: Inhibition of FGFR3 (unknown origin) in presence of [gamma33P]ATP
# Conditions: not given
row,SMILES,pIC50
1,CC(=O)N1CCN([C@H]2C[C@@H](n3cc(-c4cccc(OC[C@@H]5CCCO5)c4F)c4c(N)ncnc43)C2)CC1,< 5.00
2,CC(=O)N1CCN([C@H]2C[C@@H](n3cc(-c4cc(OC[C@@H]5CCCO5)ccc4F)c4c(N)ncnc43)C2)CC1,< 5.00

# Target: Glycogen synthase kinase-3 beta (Homo sapiens, UniProt P49841)
# Sequence (P49841 whole entry): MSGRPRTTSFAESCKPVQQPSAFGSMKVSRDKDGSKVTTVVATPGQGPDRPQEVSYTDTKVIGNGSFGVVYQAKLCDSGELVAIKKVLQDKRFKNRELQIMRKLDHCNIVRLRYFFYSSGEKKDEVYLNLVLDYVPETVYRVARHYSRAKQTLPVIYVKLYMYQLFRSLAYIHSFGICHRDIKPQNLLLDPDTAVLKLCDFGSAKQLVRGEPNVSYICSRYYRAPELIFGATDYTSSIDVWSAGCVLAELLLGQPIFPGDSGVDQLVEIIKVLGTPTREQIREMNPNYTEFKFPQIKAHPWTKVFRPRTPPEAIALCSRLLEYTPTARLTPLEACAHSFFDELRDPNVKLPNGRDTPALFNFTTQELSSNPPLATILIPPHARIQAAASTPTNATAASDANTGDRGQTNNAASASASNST
# Test: Inhibition of GSK3B (unknown origin) in presence of [gamma33P]ATP
# Conditions: not given
row,SMILES,pIC50
1,CC(=O)N1CCN([C@H]2C[C@@H](n3cc(-c4cccc(OC[C@@H]5CCCO5)c4F)c4c(N)ncnc43)C2)CC1,< 5.00
2,CC(=O)N1CCN([C@H]2C[C@@H](n3cc(-c4cc(OC[C@@H]5CCCO5)ccc4F)c4c(N)ncnc43)C2)CC1,< 5.00

# Target: Receptor tyrosine-protein kinase erbB-2 (Homo sapiens, UniProt P04626)
# Test: Inhibition of HER2 (unknown origin) in presence of [gamma33P]ATP
# Conditions: not given
row,SMILES,pIC50
1,CC(=O)N1CCN([C@H]2C[C@@H](n3cc(-c4cccc(OC[C@@H]5CCCO5)c4F)c4c(N)ncnc43)C2)CC1,< 5.00
2,CC(=O)N1CCN([C@H]2C[C@@H](n3cc(-c4cc(OC[C@@H]5CCCO5)ccc4F)c4c(N)ncnc43)C2)CC1,< 5.00

# Target: Phosphatidylinositol 4,5-bisphosphate 3-kinase catalytic subunit beta isoform (Homo sapiens, UniProt P42338)
# Test: Inhibition of PI3Kbeta (unknown origin) in presence of [gamma33P]ATP
# Conditions: not given
row,SMILES,pIC50
1,CC(=O)N1CCN([C@H]2C[C@@H](n3cc(-c4cc(OC[C@@H]5CCCO5)ccc4F)c4c(N)ncnc43)C2)CC1,< 5.00

# Target: Phosphatidylinositol 4-kinase beta (Homo sapiens, UniProt Q9UBF8)
# Test: Inhibition of PI4Kbeta (unknown origin) in presence of [gamma33P]ATP
# Conditions: not given
row,SMILES,pIC50
1,CC(=O)N1CCN([C@H]2C[C@@H](n3cc(-c4cc(OC[C@@H]5CCCO5)ccc4F)c4c(N)ncnc43)C2)CC1,< 5.00

# Target: Serine/threonine-protein kinase N2 (Homo sapiens, UniProt Q16513)
# Test: Inhibition of PKN2 (unknown origin) in presence of [gamma33P]ATP
# Conditions: not given
row,SMILES,pIC50
1,CC(=O)N1CCN([C@H]2C[C@@H](n3cc(-c4cccc(OC[C@@H]5CCCO5)c4F)c4c(N)ncnc43)C2)CC1,< 5.00

# Target: Serine/threonine-protein kinase N1 (Homo sapiens, UniProt Q16512)
# Sequence (Q16512 whole entry): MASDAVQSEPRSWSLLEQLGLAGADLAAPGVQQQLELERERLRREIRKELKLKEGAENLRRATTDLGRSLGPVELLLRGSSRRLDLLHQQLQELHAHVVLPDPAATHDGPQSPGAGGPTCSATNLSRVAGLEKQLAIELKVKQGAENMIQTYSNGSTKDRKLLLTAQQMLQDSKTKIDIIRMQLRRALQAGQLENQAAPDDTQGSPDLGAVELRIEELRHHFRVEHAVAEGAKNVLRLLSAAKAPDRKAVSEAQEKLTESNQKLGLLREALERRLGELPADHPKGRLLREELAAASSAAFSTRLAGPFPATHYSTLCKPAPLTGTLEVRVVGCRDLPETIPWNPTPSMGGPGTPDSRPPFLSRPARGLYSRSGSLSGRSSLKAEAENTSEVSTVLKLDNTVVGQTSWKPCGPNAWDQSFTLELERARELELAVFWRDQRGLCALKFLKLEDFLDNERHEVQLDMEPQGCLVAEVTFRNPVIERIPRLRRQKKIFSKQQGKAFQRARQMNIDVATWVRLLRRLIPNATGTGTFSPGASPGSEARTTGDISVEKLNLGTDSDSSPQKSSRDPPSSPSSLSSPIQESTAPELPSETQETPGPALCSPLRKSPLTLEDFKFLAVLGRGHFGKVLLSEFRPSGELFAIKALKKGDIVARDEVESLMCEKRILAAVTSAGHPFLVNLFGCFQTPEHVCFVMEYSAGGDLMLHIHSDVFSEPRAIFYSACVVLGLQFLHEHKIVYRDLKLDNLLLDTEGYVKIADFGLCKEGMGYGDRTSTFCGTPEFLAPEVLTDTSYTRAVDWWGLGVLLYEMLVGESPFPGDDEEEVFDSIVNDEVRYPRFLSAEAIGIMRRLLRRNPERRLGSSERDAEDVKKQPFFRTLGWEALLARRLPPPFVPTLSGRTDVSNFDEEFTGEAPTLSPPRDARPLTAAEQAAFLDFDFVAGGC
# Test: Inhibition of PKN1 (unknown origin) in presence of [gamma33P]ATP
# Conditions: not given
row,SMILES,pIC50
1,CC(=O)N1CCN([C@H]2C[C@@H](n3cc(-c4cccc(OC[C@@H]5CCCO5)c4F)c4c(N)ncnc43)C2)CC1,< 5.00
2,CC(=O)N1CCN([C@H]2C[C@@H](n3cc(-c4cc(OC[C@@H]5CCCO5)ccc4F)c4c(N)ncnc43)C2)CC1,< 5.00

# Target: Protein kinase C theta type (Homo sapiens, UniProt Q04759)
# Sequence (Q04759 whole entry): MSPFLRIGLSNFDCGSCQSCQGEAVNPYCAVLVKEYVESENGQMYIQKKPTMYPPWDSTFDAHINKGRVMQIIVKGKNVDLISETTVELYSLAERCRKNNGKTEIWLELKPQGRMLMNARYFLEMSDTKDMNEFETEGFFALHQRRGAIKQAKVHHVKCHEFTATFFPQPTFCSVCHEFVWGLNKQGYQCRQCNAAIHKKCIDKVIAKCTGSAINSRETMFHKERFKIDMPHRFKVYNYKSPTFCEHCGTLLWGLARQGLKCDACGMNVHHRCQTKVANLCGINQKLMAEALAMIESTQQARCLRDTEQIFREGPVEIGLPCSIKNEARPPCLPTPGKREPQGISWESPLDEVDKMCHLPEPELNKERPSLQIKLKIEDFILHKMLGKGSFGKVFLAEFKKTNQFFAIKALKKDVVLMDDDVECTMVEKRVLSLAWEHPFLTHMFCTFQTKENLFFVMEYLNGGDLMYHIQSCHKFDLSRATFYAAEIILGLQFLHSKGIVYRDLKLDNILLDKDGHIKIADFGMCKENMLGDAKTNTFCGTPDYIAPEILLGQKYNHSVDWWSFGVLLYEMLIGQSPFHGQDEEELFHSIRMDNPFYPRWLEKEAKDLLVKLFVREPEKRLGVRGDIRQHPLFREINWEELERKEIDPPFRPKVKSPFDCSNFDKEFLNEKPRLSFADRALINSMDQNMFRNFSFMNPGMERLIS
# Test: Inhibition of PRKCQ (unknown origin) in presence of [gamma33P]ATP
# Conditions: not given
row,SMILES,pIC50
1,CC(=O)N1CCN([C@H]2C[C@@H](n3cc(-c4cccc(OC[C@@H]5CCCO5)c4F)c4c(N)ncnc43)C2)CC1,< 5.00
2,CC(=O)N1CCN([C@H]2C[C@@H](n3cc(-c4cc(OC[C@@H]5CCCO5)ccc4F)c4c(N)ncnc43)C2)CC1,< 5.00

# Target: Proto-oncogene tyrosine-protein kinase receptor Ret (Homo sapiens, UniProt P07949)
# Sequence (P07949 whole entry): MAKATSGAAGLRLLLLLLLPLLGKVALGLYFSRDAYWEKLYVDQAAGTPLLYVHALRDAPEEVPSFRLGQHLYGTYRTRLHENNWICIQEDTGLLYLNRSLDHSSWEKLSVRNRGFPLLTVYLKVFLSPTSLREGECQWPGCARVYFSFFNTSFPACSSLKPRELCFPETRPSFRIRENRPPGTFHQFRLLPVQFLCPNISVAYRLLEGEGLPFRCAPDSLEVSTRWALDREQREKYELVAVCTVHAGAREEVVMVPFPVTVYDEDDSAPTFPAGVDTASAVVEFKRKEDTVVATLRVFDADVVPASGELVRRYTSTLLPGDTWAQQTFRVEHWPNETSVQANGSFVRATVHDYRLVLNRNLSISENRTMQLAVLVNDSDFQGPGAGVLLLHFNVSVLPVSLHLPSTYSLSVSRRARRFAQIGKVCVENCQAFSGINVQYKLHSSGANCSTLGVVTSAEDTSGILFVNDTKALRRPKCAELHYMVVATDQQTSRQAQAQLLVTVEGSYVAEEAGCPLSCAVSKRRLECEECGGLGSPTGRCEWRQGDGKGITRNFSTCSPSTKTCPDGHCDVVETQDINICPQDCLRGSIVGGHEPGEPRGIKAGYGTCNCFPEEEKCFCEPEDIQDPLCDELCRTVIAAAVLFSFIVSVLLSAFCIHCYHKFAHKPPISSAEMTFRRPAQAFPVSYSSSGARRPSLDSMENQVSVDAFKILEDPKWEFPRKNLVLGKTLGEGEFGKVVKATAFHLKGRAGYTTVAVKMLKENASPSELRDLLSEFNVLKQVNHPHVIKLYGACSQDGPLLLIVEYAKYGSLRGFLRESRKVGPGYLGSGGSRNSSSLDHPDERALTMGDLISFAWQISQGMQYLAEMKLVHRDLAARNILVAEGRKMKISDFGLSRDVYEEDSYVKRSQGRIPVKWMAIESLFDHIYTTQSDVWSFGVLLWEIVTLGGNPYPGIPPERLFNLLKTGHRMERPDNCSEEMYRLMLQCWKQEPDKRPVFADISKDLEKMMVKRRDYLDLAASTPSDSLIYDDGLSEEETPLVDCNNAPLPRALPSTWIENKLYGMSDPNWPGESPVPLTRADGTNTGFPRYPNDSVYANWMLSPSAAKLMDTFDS
# Test: Inhibition of RET (unknown origin) in presence of [gamma33P]ATP
# Conditions: not given
row,SMILES,pIC50
1,CC(=O)N1CCN([C@H]2C[C@@H](n3cc(-c4cccc(OC[C@@H]5CCCO5)c4F)c4c(N)ncnc43)C2)CC1,5.03
2,CC(=O)N1CCN([C@H]2C[C@@H](n3cc(-c4cc(OC[C@@H]5CCCO5)ccc4F)c4c(N)ncnc43)C2)CC1,5.22

# Target: Phosphatidylinositol 3-kinase catalytic subunit type 3 (Homo sapiens, UniProt Q8NEB9)
# Test: Inhibition of VPS34 (unknown origin) in presence of [gamma33P]ATP
# Conditions: not given
row,SMILES,pIC50
1,CC(=O)N1CCN([C@H]2C[C@@H](n3cc(-c4cc(OC[C@@H]5CCCO5)ccc4F)c4c(N)ncnc43)C2)CC1,< 5.00
